Laboratory results reported in ChEMBL document CHEMBL3046590, “Design and synthesis of some thiazolotriazolyl esters as anti-inflammatory and analgesic agents” (Med Chem Res, 2012).

Columns and labels:
Mus musculus [1] = test: Anti-inflammatory activity in Mus musculus BALB/c (mouse) assessed as inhibition of carrageenan-induced paw swelling at 100 mg/kg, po administered 1 hr followed by carrageenan challenge measured at 270 min relative to control; type: functional
Mus musculus [2] = test: Anti-inflammatory activity in Mus musculus BALB/c (mouse) assessed as carrageenan-induced paw swelling at 50 mg/kg, po administered 1 hr followed by carrageenan challenge measured at 180 min (reference value: 52 +/- 4.6 x 10^-2 mm); type: functional
Mus musculus [3] = test: Toxicity in Mus musculus BALB/c (mouse) assessed as mortality at 50 to 200 mg/kg, po after 72 hr; type: organism-based; set-up: dose 50-200 mg/kg, route oral; details: in vivo
Mus musculus [4] = test: Anti-inflammatory activity in Mus musculus BALB/c (mouse) assessed as carrageenan-induced paw swelling at 100 mg/kg, po administered 1 hr followed by carrageenan challenge measured at 360 min (reference value: 105 +/- 4.5 x 10^-2 mm); type: functional
Mus musculus [5] = test: Anti-inflammatory activity in Mus musculus BALB/c (mouse) assessed as carrageenan-induced paw swelling at 100 mg/kg, po administered 1 hr followed by carrageenan challenge measured at 180 min (reference value: 52 +/- 4.6 x 10^-2 mm); type: functional
Mus musculus [6] = test: Toxicity in Mus musculus BALB/c (mouse) assessed as behavioral changes at 50 to 200 mg/kg, po after 72 hr; type: organism-based; set-up: dose 50-200 mg/kg, route oral; details: in vivo
Mus musculus [7] = test: Anti-inflammatory activity in Mus musculus BALB/c (mouse) assessed as carrageenan-induced paw swelling at 50 mg/kg, po administered 1 hr followed by carrageenan challenge measured at 360 min (reference value: 105 +/- 4.5 x 10^-2 mm); type: functional
Mus musculus [8] = test: Anti-inflammatory activity in Mus musculus BALB/c (mouse) assessed as carrageenan-induced paw swelling at 100 mg/kg, po administered 1 hr followed by carrageenan challenge measured at 270 min (reference value: 78 +/- 8.4 x 10^-2 mm); type: functional
Mus musculus [9] = test: Anti-inflammatory activity in Mus musculus BALB/c (mouse) assessed as inhibition of carrageenan-induced paw swelling at 100 mg/kg, po administered 1 hr followed by carrageenan challenge measured at 360 min relative to control; type: functional
Mus musculus [10] = test: Anti-inflammatory activity in Mus musculus BALB/c (mouse) assessed as inhibition of carrageenan-induced paw swelling at 50 mg/kg, po administered 1 hr followed by carrageenan challenge measured at 270 min relative to control; type: functional
Mus musculus [11] = test: Anti-inflammatory activity in Mus musculus BALB/c (mouse) assessed as carrageenan-induced paw swelling at 200 mg/kg, po administered 1 hr followed by carrageenan challenge measured at 90 min (reference value: 39 +/- 5.6 x 10^-2 mm); type: functional
Mus musculus [12] = test: Anti-inflammatory activity in Mus musculus BALB/c (mouse) assessed as inhibition of carrageenan-induced paw swelling at 50 mg/kg, po administered 1 hr followed by carrageenan challenge measured at 360 min relative to control; type: functional
Mus musculus [13] = test: Anti-inflammatory activity in Mus musculus BALB/c (mouse) assessed as carrageenan-induced paw swelling at 200 mg/kg, po administered 1 hr followed by carrageenan challenge measured at 360 min (reference value: 105 +/- 4.5 x 10^-2 mm); type: functional
Mus musculus [14] = test: Anti-inflammatory activity in Mus musculus BALB/c (mouse) assessed as carrageenan-induced paw swelling at 200 mg/kg, po administered 1 hr followed by carrageenan challenge measured at 270 min (reference value: 78 +/- 8.4 x 10^-2 mm); type: functional
Mus musculus [15] = test: Anti-inflammatory activity in Mus musculus BALB/c (mouse) assessed as carrageenan-induced paw swelling at 100 mg/kg, po administered 1 hr followed by carrageenan challenge measured at 90 min (reference value: 39 +/- 5.6 x 10^-2 mm); type: functional
Mus musculus [16] = test: Anti-inflammatory activity in Mus musculus BALB/c (mouse) assessed as inhibition of carrageenan-induced paw swelling at 100 mg/kg, po administered 1 hr followed by carrageenan challenge measured at 180 min relative to control; type: functional
Mus musculus [17] = test: Anti-inflammatory activity in Mus musculus BALB/c (mouse) assessed as carrageenan-induced paw swelling at 50 mg/kg, po administered 1 hr followed by carrageenan challenge measured at 270 min (reference value: 78 +/- 8.4 x 10^-2 mm); type: functional
Mus musculus [18] = test: Antioxidant activity in Mus musculus BALB/c (mouse) stomach assessed as TBARS level at 100 mg/kg, po (reference value: 80.4 +/- 5.4 nmol/g ); type: functional
Mus musculus [19] = test: Anti-inflammatory activity in Mus musculus BALB/c (mouse) assessed as carrageenan-induced paw swelling at 50 mg/kg, po administered 1 hr followed by carrageenan challenge measured at 90 min (reference value: 39 +/- 5.6 x 10^-2 mm); type: functional
Mus musculus [20] = test: Anti-inflammatory activity in Mus musculus BALB/c (mouse) assessed as carrageenan-induced paw swelling at 200 mg/kg, po administered 1 hr followed by carrageenan challenge measured at 180 min (reference value: 52 +/- 4.6 x 10^-2 mm); type: functional
Mus musculus [21] = test: Anti-inflammatory activity in Mus musculus BALB/c (mouse) assessed as inhibition of carrageenan-induced paw swelling at 200 mg/kg, po administered 1 hr followed by carrageenan challenge measured at 270 min relative to control; type: functional
Mus musculus [22] = test: Anti-inflammatory activity in Mus musculus BALB/c (mouse) assessed as inhibition of carrageenan-induced paw swelling at 200 mg/kg, po administered 1 hr followed by carrageenan challenge measured at 180 min relative to control; type: functional
Mus musculus [23] = test: Analgesic activity in Mus musculus BALB/c (mouse) assessed as inhibition of acetic acid-induced writhing at 100 mg/kg, po administered 1 hr followed by acetic acid challenge measured for 10 min; type: functional
Mus musculus [24] = test: Anti-inflammatory activity in Mus musculus BALB/c (mouse) assessed as inhibition of carrageenan-induced paw swelling at 200 mg/kg, po administered 1 hr followed by carrageenan challenge measured at 360 min relative to control; type: functional

Q: Which results are given for COc1cc(CC2=NC(=S)N=N2)cc(OC)c1OC?
A: inhibition in vivo at 100 mg/kg (Mus musculus [1]): 23.1%; Activity (Mus musculus [2]): 46 ×10⁻² mm; Activity (Mus musculus [3]): Non-toxic; Activity (Mus musculus [4]): 65 ×10⁻² mm; Activity (Mus musculus [5]): 42.5 ×10⁻² mm; Activity (Mus musculus [6]): Non-toxic; Activity (Mus musculus [7]): 77.3 ×10⁻² mm; Activity (Mus musculus [8]): 60 ×10⁻² mm; inhibition in vivo at 100 mg/kg (Mus musculus [9]): 38.1%; inhibition in vivo at 50 mg/kg (Mus musculus [10]): 25.9%; Activity (Mus musculus [11]): 45.6 ×10⁻² mm; inhibition in vivo at 50 mg/kg (Mus musculus [12]): 26.4%; Activity (Mus musculus [13]): 104.5 ×10⁻² mm; Activity (Mus musculus [14]): 77 ×10⁻² mm; Activity (Mus musculus [15]): 36.2 ×10⁻² mm; inhibition in vivo at 100 mg/kg (Mus musculus [16]): 18.3%; Activity (Mus musculus [17]): 57.8 ×10⁻² mm; Activity (Mus musculus [18]): 115.1 nmol/g; Activity (Mus musculus [19]): 35.6 ×10⁻² mm; Activity (Mus musculus [20]): 49.8 ×10⁻² mm

Q: How did the inhibition in vivo at 100 mg/kg (Mus musculus [1]) turn out when CCOC(=O)Cc1csc2nc(-c3cc(Cl)cc(Cl)c3)nn12 was run?
A: 16.7%

Q: What about the Activity (Mus musculus [2]) of the same compound?
A: 49 ×10⁻² mm

Q: What about the Activity (Mus musculus [3]) of the same compound?
A: Non-toxic

Q: And the inhibition in vivo at 200 mg/kg (Mus musculus [21])?
A: 21.4%

Q: What about the Activity (Mus musculus [4]) of the same compound?
A: 60 ×10⁻² mm

Q: And the Activity (Mus musculus [5])?
A: 66.2 ×10⁻² mm

Q: And the Activity (Mus musculus [6])?
A: Non-toxic

Q: And the Activity (Mus musculus [7])?
A: 96 ×10⁻² mm

Q: What about the inhibition in vivo at 200 mg/kg (Mus musculus [22]) of the same compound?
A: 17.3%

Q: And the Activity (Mus musculus [8])?
A: 65 ×10⁻² mm

Q: What about the inhibition in vivo at 100 mg/kg (Mus musculus [9]) of the same compound?
A: 42.8%

Q: What about the Activity (Mus musculus [11]) of the same compound?
A: 41.6 ×10⁻² mm

Q: And the inhibition in vivo at 100 mg/kg (Mus musculus [23])?
A: 35.9%

Q: And the Activity (Mus musculus [13])?
A: 83.1 ×10⁻² mm

Q: What about the Activity (Mus musculus [14]) of the same compound?
A: 61.3 ×10⁻² mm

Q: And the Activity (Mus musculus [15])?
A: 40 ×10⁻² mm

Q: What about the inhibition in vivo at 200 mg/kg (Mus musculus [24]) of the same compound?
A: 20.8%

Q: What about the Activity (Mus musculus [17]) of the same compound?
A: 78 ×10⁻² mm

Q: And the Activity (Mus musculus [18])?
A: 200.1 nmol/g

Q: And the Activity (Mus musculus [19])?
A: 70.4 ×10⁻² mm

Q: What about the Activity (Mus musculus [20]) of the same compound?
A: 43 ×10⁻² mm

Q: CCOC(=O)Cc1csc2nc(-c3ccc(OC)cc3)nn12 was tested. Which Activity (Mus musculus [2]) did it give?
A: 65.4 ×10⁻² mm

Q: And the Activity (Mus musculus [3])?
A: Non-toxic

Q: And the Activity (Mus musculus [4])?
A: 122.5 ×10⁻² mm

Q: What about the Activity (Mus musculus [5]) of the same compound?
A: 38.3 ×10⁻² mm

Q: And the Activity (Mus musculus [6])?
A: Non-toxic

Q: What about the Activity (Mus musculus [7]) of the same compound?
A: 96.1 ×10⁻² mm

Q: What about the Activity (Mus musculus [8]) of the same compound?
A: 90 ×10⁻² mm

Q: And the Activity (Mus musculus [11])?
A: 43.7 ×10⁻² mm

Q: What about the inhibition in vivo at 100 mg/kg (Mus musculus [23]) of the same compound?
A: 24.3%

Q: And the Activity (Mus musculus [13])?
A: 110.8 ×10⁻² mm

Q: And the Activity (Mus musculus [14])?
A: 79 ×10⁻² mm

Q: And the Activity (Mus musculus [15])?
A: 47.9 ×10⁻² mm

Q: And the inhibition in vivo at 100 mg/kg (Mus musculus [16])?
A: 24.4%

Q: What about the Activity (Mus musculus [17]) of the same compound?
A: 76.2 ×10⁻² mm

Q: What about the Activity (Mus musculus [18]) of the same compound?
A: 128.7 nmol/g

Q: What about the Activity (Mus musculus [19]) of the same compound?
A: 71.2 ×10⁻² mm

Q: And the Activity (Mus musculus [20])?
A: 52.2 ×10⁻² mm

Q: Which Activity (Mus musculus [2]) does the source give for Sc1n[nH]c(-c2ccccc2)n1 here?
A: 34.9 ×10⁻² mm

Q: And the Activity (Mus musculus [3])?
A: Non-toxic

Q: And the Activity (Mus musculus [4])?
A: 126 ×10⁻² mm

Q: What about the Activity (Mus musculus [5]) of the same compound?
A: 36.9 ×10⁻² mm

Q: And the Activity (Mus musculus [6])?
A: Non-toxic

Q: What about the Activity (Mus musculus [7]) of the same compound?
A: 89.1 ×10⁻² mm

Q: What about the Activity (Mus musculus [8]) of the same compound?
A: 111 ×10⁻² mm

Q: And the inhibition in vivo at 50 mg/kg (Mus musculus [10])?
A: 21.4%

Q: What about the Activity (Mus musculus [11]) of the same compound?
A: 45.8 ×10⁻² mm

Q: And the inhibition in vivo at 100 mg/kg (Mus musculus [23])?
A: 35.9%

Q: What about the inhibition in vivo at 50 mg/kg (Mus musculus [12]) of the same compound?
A: 15.1%

Q: What about the Activity (Mus musculus [13]) of the same compound?
A: 105.4 ×10⁻² mm

Q: And the Activity (Mus musculus [14])?
A: 74.3 ×10⁻² mm

Q: And the Activity (Mus musculus [15])?
A: 44.3 ×10⁻² mm

Q: And the inhibition in vivo at 100 mg/kg (Mus musculus [16])?
A: 27.1%

Q: And the Activity (Mus musculus [17])?
A: 61.3 ×10⁻² mm

Q: And the Activity (Mus musculus [18])?
A: 88.4 nmol/g

Q: And the Activity (Mus musculus [19])?
A: 39.8 ×10⁻² mm

Q: And the Activity (Mus musculus [20])?
A: 51.7 ×10⁻² mm

Q: Which results are given for CC(=O)Oc1ccccc1C(=O)O [ASPIRIN]?
A: Activity (Mus musculus [3]): Non-toxic; Activity (Mus musculus [6]): Non-toxic; inhibition in vivo at 100 mg/kg (Mus musculus [23]): 50%; Activity (Mus musculus [18]): 121 nmol/g
